System: anti-EGF rabbit polyclonal antibodies (Abcam 9695)
Assay: Dot blot of cellulose-immobilized EGF decapeptides with anti-EGF polyclonal antibodies;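 for Intensity (Staining Value): higher gray value means stronger antibody binding with above 120 very strong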
Assay type: binding
Conditions: for Intensity (ability to interact with polyclonal antibodies) / interaction with polyclonal anti-EGF antibodies (in words): peptide on cellulose matrix; for Intensity (ability to interact with polyclonal antibodies): antibody 1:1000, 1 h room temperature; for Intensity (Staining Value): scanned spot, 256 gray scale (ImageJ)
Procedure: Dot blot reactions were performed using primary anti-EGF rabbit polyclonal antibodies (Abcam 9695) (Cambridge, UK) and secondary goat anti-rabbit antibodies conjugated with HRP (Abcam 205718). The procedure for using the dot blot method to analyze peptides immobilized on a cellulose matrix through a triazine linker was optimized in a previous study by the authors and ensures the elimination of non-specific impacts.
The solution was then removed, and the membranes were treated overnight at room temperature with blocking buffer (3% BSA in PBS, 40 mL, pH 7.4). The cellulose sheets were then washed with PBS buffer (40 mL, 5 min, pH 7.4). […] The membranes were then washed with Tween-80 solution in PBS (0.4%, 40 mL, 2 × 5 min) and PBS (40 mL, 5 min). Goat Anti-Rabbit IgG antibodies were conjugated with HRP (Abcam 205718, 20 μL) diluted 1:1000 in 1% BSA in PBS (20 mL, pH 7.4) and then incubated with cellulose sheets for 30 min at room temperature. The membranes were then washed with Tween-80 solution in PBS (0.4%, 40 mL, 2 × 5 min) and PBS (40 mL, 5 min). Visualization of the reactions was performed using 4-chloro-1-naphtol (Sigma–Aldrich). The cellulose sheets were placed into 0.15 mg/mL solution of 4-chloro-1-naphtol in MeOH:PBS (1:5, 15 mL) with the addition of 7.5 μL of H2O2; reaction time was 30 min. The membranes were washed with distilled water, air-dried, and scanned. In places where immunological complexes developed, blue precipitate was observed. The applied dot blot test procedure ensures the elimination of non-specific interactions. Additionally, using the same SPOT synthesis procedure, a library of type IV collagen fragments was obtained. […] The gray levels of the immunological reactions were determined using ImageJ Version 1.53n7 (https://imagej.nih.gov/ij/index.html, accessed on 17 October 2021) computer imaging software.

Row | Substance | Intensity (ability to interact with polyclonal antibodies) | Intensity (Staining Value) | interaction with polyclonal anti-EGF antibodies (in words)
1 | H-^1NSDSECPLSH^10-matrix [A1] | − ((−), where the color intensity value was <45) | 14.8 | 
2 | H-^2SDSECPLSHD^11-matrix [A2] | − ((−), where the color intensity value was <45) | 22.3 | 
3 | H-^3DSECPLSHDG^12-matrix [A3] | +/− (moderately strong (+/−), for which the color intensity value was in the range of 90–45) | 71.7 | 
4 | H-^4SECPLSHDGY^13-matrix [A4] | +/− (moderately strong (+/−), for which the color intensity value was in the range of 90–45) | 55.2 | 
5 | H-^5ECPLSHDGYC^14-matrix [A5] | +/− (moderately strong (+/−), for which the color intensity value was in the range of 90–45) |  | 
6 | H-^6CPLSHDGYCL^15-matrix [A6] | +/− (moderately strong (+/−), for which the color intensity value was in the range of 90–45) |  | 
7 | H-^7PLSHDGYCLH^16-matrix [A7] | +/− (moderately strong (+/−), for which the color intensity value was in the range of 90–45) | 62.2 | 
8 | H-^8LSHDGYCLHD^17-matrix [A8] | +/− (moderately strong (+/−), for which the color intensity value was in the range of 90–45) | 59.3 | 
9 | H-^9SHDGYCLHDG^18-matrix [A9] | +/− (moderately strong (+/−), for which the color intensity value was in the range of 90–45) | 63.8 | 
10 | H-^10HDGYCLHDGV^19-matrix [A10] | + (strong (+), for which the staining intensity value was in the range of 120–90) | 91.3 | 
11 | H-^11DGYCLHDGVC^20-matrix [A11] | + (strong (+), for which the staining intensity value was in the range of 120–90) | 90.5 | 
12 | H-^12GYCLHDGVCM^21-matrix [A12] | + (strong (+), for which the staining intensity value was in the range of 120–90) | 92.4 | 
13 | H-^13YCLHDGVCMY^22-matrix [A13] | + (strong (+), for which the staining intensity value was in the range of 120–90) | 93.0 | 
14 | H-^14CLHDGVCMYI^23-matrix [A14] | − ((−), where the color intensity value was <45) | 31.6 | inactive
15 | H-^15LHDGVCMYIE^24-matrix [A15] | − ((−), where the color intensity value was <45) | 41.6 | no affinity for antibodies
16 | H-^16HDGVCMYIEA^25-matrix [A16] | − ((−), where the color intensity value was <45) | 44.8 | low affinity
17 | H-^17DGVCMYIEAL^26-matrix [A17] | +/− (moderately strong (+/−), for which the color intensity value was in the range of 90–45) | 88.9 | 
18 | H-^18GVCMYIEALD^27-matrix [A18] | + (strong (+), for which the staining intensity value was in the range of 120–90) | 116.0 | 

Row | Substance | Intensity (ability to interact with polyclonal antibodies) | Intensity (Staining Value) | interaction with polyclonal anti-EGF antibodies (in words)
19 | H-^19VCMYIEALDK^28-matrix [A19] | ++ (very strong (++), for which the staining intensity value was >120) | 128.0 | 
20 | H-^20CMYIEALDKY^29-matrix [A20] | ++ (very strong (++), for which the staining intensity value was >120) | 132.8 | 
21 | H-^21MYIEALDKYA^30-matrix [B1] | ++ (very strong (++), for which the staining intensity value was >120) | 130.3 | 
22 | H-^22YIEALDKYAC^31-matrix [B2] | ++ (very strong (++), for which the staining intensity value was >120) | 122.4 | 
23 | H-^23IEALDKYACN^32-matrix [B3] | +/− (moderately strong (+/−), for which the color intensity value was in the range of 90–45) | 63.8 | lower affinity for antibodies
24 | H-^24EALDKYACNC^33-matrix [B4] | − ((−), where the color intensity value was <45) | 30.5 | no affinity for antibodies
25 | H-^25ALDKYACNCV^34-matrix [B5] | − ((−), where the color intensity value was <45) | 29.6 | 
26 | H-^26LDKYACNCVV^35-matrix [B6] | +/− (moderately strong (+/−), for which the color intensity value was in the range of 90–45) | 46.6 | 
27 | H-^27DKYACNCVVG^36-matrix [B7] | +/− (moderately strong (+/−), for which the color intensity value was in the range of 90–45) | 55.3 | 
28 | H-^28KYACNCVVGY^37-matrix [B8] | +/− (moderately strong (+/−), for which the color intensity value was in the range of 90–45) | 63.5 | 
29 | H-^29YACNCVVGYI^38-matrix [B9] | + (strong (+), for which the staining intensity value was in the range of 120–90) | 91.1 | 
30 | H-^30ACNCVVGYIG^39-matrix [B10] | +/− (moderately strong (+/−), for which the color intensity value was in the range of 90–45) | 58.5 | 
31 | H-^31CNCVVGYIGE^40-matrix [B11] | +/− (moderately strong (+/−), for which the color intensity value was in the range of 90–45) | 60.3 | 
32 | H-^32NCVVGYIGER^41-matrix [B12] | +/− (moderately strong (+/−), for which the color intensity value was in the range of 90–45) | 56.3 | 
33 | H-^33CVVGYIGERC^42-matrix [B13] | +/− (moderately strong (+/−), for which the color intensity value was in the range of 90–45) | 65.7 | 
34 | H-^34VVGYIGERCQ^43-matrix [B14] | +/− (moderately strong (+/−), for which the color intensity value was in the range of 90–45) | 69.4 | 
35 | H-^35VGYIGERCQY^44-matrix [B15] | + (strong (+), for which the staining intensity value was in the range of 120–90) | 91.0 | 
36 | H-^36GYIGERCQYR^45-matrix [B16] | + (strong (+), for which the staining intensity value was in the range of 120–90) | 98.0 | 

From paper PMC10855902 (International Journal of Molecular Sciences, 2024)
